{"source": "patent US20250388529A1", "about": "“N-Substituted Phenylalkylamines and Their Use as Therapeutic Agents” (priority 2023, published 2025)", "key": {"5-HT2A [1]": {"biological_target": "T1, 5-HT2A (Homo sapiens, UniProt P28223)", "T1 sequence (P28223 whole entry)": "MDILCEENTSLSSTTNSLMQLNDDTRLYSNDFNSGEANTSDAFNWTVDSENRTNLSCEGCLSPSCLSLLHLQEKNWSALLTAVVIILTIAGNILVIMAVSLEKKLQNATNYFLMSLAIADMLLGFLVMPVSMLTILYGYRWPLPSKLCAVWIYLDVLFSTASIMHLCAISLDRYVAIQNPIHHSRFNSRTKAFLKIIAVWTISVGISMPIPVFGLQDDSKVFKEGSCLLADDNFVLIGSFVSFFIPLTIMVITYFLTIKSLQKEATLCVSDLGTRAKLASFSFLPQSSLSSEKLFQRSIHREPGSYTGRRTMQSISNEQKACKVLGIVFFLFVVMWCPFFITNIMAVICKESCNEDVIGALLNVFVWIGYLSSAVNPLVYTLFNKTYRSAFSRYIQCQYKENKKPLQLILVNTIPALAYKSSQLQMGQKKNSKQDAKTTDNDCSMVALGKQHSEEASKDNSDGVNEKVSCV", "settings": "[125I]-DOI competition binding; cited from earlier work"}, "rat 5-HT2A receptors": {"biological_target": "rat 5-HT2A receptors (Rattus norvegicus, UniProt P14842)", "sequence (P14842 whole entry)": "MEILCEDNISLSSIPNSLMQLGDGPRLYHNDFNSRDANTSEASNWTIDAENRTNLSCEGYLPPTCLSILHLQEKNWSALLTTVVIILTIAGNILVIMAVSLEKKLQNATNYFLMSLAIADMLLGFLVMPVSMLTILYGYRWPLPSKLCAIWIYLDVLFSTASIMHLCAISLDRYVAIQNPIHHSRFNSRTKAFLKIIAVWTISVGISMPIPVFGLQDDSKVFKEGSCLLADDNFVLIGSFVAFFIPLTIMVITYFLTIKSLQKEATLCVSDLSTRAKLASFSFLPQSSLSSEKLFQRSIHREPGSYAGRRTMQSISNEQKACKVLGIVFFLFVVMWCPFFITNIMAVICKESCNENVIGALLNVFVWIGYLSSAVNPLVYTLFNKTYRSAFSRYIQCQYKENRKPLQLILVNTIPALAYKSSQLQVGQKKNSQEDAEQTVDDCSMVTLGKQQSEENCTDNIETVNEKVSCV", "settings": "[125I]-DOI competition binding; cited from earlier work"}, "5-HT2A [2]": {"biological_target": "T1, 5-HT2A", "settings": "Ca2+ mobilization; cited from earlier work"}, "5-HT2B": {"biological_target": "5-HT2B (Homo sapiens, UniProt P41595)", "sequence (P41595 whole entry)": "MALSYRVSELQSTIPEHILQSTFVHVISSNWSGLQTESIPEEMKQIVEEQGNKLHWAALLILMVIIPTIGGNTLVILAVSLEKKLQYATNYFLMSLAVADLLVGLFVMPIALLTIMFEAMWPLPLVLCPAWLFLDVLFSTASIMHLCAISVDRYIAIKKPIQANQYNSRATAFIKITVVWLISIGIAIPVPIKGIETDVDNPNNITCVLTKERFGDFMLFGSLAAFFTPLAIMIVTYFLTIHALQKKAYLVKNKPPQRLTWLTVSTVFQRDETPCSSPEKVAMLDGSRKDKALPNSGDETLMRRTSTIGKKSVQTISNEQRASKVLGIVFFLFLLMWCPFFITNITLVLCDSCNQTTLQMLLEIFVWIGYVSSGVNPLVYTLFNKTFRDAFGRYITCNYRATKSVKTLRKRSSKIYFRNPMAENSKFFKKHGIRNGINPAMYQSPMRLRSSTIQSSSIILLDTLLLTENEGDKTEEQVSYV", "settings": "Ca2+ mobilization; cited from earlier work"}, "5-HT2A [3]": {"biological_target": "T1, 5-HT2A", "settings": "cited from earlier work"}, "5-HT2A receptors": {"biological_target": "T2, 5-HT2A receptors (Rattus norvegicus, UniProt P14842)", "T2 construct": "host or cells: Xenopus oocytes (transient)", "T2 sequence (P14842 whole entry)": "as the sequence (P14842 whole entry) above", "settings": "Xenopus oocytes; cited from earlier work"}, "[4]": {"settings": "cited from earlier work"}, "human Nav1.1 and Navβ1": {"biological_target": "human Nav1.1 and Navβ1 (Homo sapiens, UniProt P35498)", "assay": "cell-based"}}}
{"smiles": "COc1cc(CCN)c(OC)cc1Br", "note": "[2C-B]", "values": [{"measurement": "Ki", "setting": "5-HT2A [1]", "value": 0.88, "unit": "nM"}, {"measurement": "Ki", "setting": "rat 5-HT2A receptors", "value": 0.66, "unit": "nM"}, {"measurement": "EC50", "setting": "5-HT2A [2]", "value": 2.1, "unit": "nM"}, {"measurement": "EC50", "setting": "5-HT2B", "value": 57, "unit": "nM"}, {"measurement": "functional activity at the 5-HT2A receptor", "setting": "5-HT2A [3]", "value": "partial agonist"}, {"measurement": "functional activity in 5-HT2A-mediated inward current recordings", "setting": "5-HT2A receptors", "value": "antagonist"}, {"measurement": "oral activity (dose)", "setting": "[4]", "value": "12 to 24", "unit": "mg"}]}
{"smiles": "NC1=N[C@H](O)[C@H]2[C@H]3O[C@]4(O)O[C@@H]([C@@H](O)[C@@]2(N1)[C@@H]4O)[C@]3(O)CO", "note": "[TTX, Tetrodotoxin, reference compound]", "values": [{"measurement": "Normalized Peak INa Inhibition", "setting": "human Nav1.1 and Navβ1", "value": "0.870 ± 0.02"}, {"measurement": "Peak INa Density", "setting": "human Nav1.1 and Navβ1", "value": "−56.3 ± 9.4", "unit": "pA/pF"}, {"measurement": "Peak INa Density @ −20 mV", "setting": "human Nav1.1 and Navβ1", "value": "−15.84±2.16", "unit": "pA/pF"}, {"measurement": "reduction of baseline peak INa", "setting": "human Nav1.1 and Navβ1", "value": "87±2", "unit": "%"}]}
